Measurements from patent US9128097B2, “Method and kit for assessing viable cells” (ChemoMetec A/S, priority 2008, dated 2015).

What was measured:
Jurkat (JM) cells = experiment: Staining of proliferating Jurkat cells with labelling agent and propidium iodide, fluorescence microscopy; assay type: cell-based; conditions: 10 μL agent (100 μg pr. mL DMSO) added to 90 μL cells, only exception PI positive cells
Experimental: (§1) Materials and Methods. Jurkat (JM) cells were grown at 37° C. in a humidified air atmosphere with 5% CO2 in RPMI (Invitrogen, #61870) supplemented with 10% heat-inactivated fetal bovine serum (Invitrogen, #10108-165). 90 μL proliferating Jurkat cells (cell density 1.2×10^6, 99% viable determined using the NC-100 NucleoCounter system following the manufacturer's (ChemoMetec A/S) protocol) were added 10 μL NAM (N-(9-acridinyl)maleimide, Sigma, #01665, CAS no. 49759-20-8) dissolved in DMSO (100 μg NAM pr. mL DMSO) and mixed by pipetting. Cells were loaded into a NucleoCassette, containing the DNA stain propidium iodide (PI). The cells were investigated using an Olympus IX50 fluorescence microscope, and images were captured using a Lumenera CCD camera and in-house developed software. PI and NAM fluorescence were detected using, respectively, U-MWG2 (green long pass: 510-550 nm) and U-MNUA2 (UV band pass, 330-385 nm) filter cubes (Olympus).
as §1, with “1.0×10^6,” for “1.2×10^6,”, “(ChemoMetec)” for “(ChemoMetec A/S)”, “CPM (7-diethylamino-3-[4′-maleimidylphenyl]-4-methylcoumarin, Chemodex Ltd.,” for “NAM (N-(9-acridinyl)maleimide, Sigma, #01665,”, “76877-33-3)” for “49759-20-8)”, “CPM” for “NAM”
as §1, with “1.1×10^6, 98%” for “1.2×10^6, 99%”, “(ChemoMetec)” for “(ChemoMetec A/S)”, “PM (N-(1-Pyrenyl)maleimide, Sigma P7908” for “NAM (N-(9-acridinyl)maleimide, Sigma, #01665,”, “42189-56-0)” for “49759-20-8)”, “PM” for “NAM”, “Cells were loaded into a NucleoCassette, containing the DNA stain propidium iodide (PI).” left out
Materials and Methods. […] 90 μL proliferating Jurkat cells (cell density 1.1×10^6, 98% viable determined using the NC-100 NucleoCounter system following the manufacturer's (ChemoMetec) protocol) were added 10 μL CPI (7-diethylamino-3-((4′-(iodoacetyl)amino)phenyl)-4-methylcoumarin, Sigma 78264 CAS no. 76877-34-4) dissolved in DMSO (100 μg CPI pr. mL DMSO) and mixed by pipetting. […] The cells were investigated using an Olympus IX50 fluorescence microscope, and images were captured using a Lumenera CCD camera and in-house developed software. PI and CPI fluorescence were detected using, respectively, U-MWG2 (green long pass: 510-550 nm) and U-MNUA2 (UV band pass, 330-385 nm) filter cubes (Olympus). […]

HEK293 cells = experiment: NAM/PI staining of outgrown HEK293 cells, fluorescence microscopy; assay type: cell-based, Human; conditions: HEK293 cells treated with 0.25% Triton X-100; 10 μg/mL NAM
Experimental: Materials and Methods. HEK293 cells were grown at 37° C. in a humidified air atmosphere with 5% CO2 in DMEM (Invitrogen, #31966) supplemented with 10% heat-inactivated fetal bovine serum (Invitrogen, #10108-165). Cells were harvested with 0.5 mL of trypsin (Invitrogen, #25300) and neutralized with 5 mL medium (DMEM+10% FCS) two days after they had reached full confluency. These outgrown HEK293 cells (cell density 1.6×10^6, 78% viable determined using the NC-100 NucleoCounter system following the manufacturer's (ChemoMetec) protocol) were stained with 10 μg/mL NAM (Sigma, #01665). Another cell sample were treated with 0.25% Triton X-100 (Sigma, #T9284) and hereafter added 10 μg/mL NAM. After staining, each cell sample was loaded into a NucleoCassette, containing the DNA stain propidium iodide (PI). The cells were investigated using an Olympus IX50 fluorescence microscope, and images were captured using a Lumenera CCD camera and in-house developed software. PI and NAM fluorescence were detected using, respectively, U-MWG2 (green long pass: 510-550 nm) and U-MNUA2 (UV band pass, 330-385 nm) filter cubes (Olympus).

[1] = system: bone marrow derived dendritic cells (BM-DCs); experiment: Staining of bone marrow derived dendritic cells with labelling agent and PI; assay type: cell-based, murine; conditions: dendritic cells 97% viable; 10 μL mCB (100 μg pr. mL DMSO) to 90 μL cells; incubated at room temperature for 1 hour
Text: Materials and Methods. Dendritic cells were developed from murine bone marrow derived cells as described by “Lutz, M. B., N. Kukutsch, A. L. Ogilvie, S. Rossner, F. Koch, N. Romani, and G. Schuler. 1999. An advanced culture method for generating large quantities of highly pure dendritic cells from mouse bone marrow. J Immunol Methods 223:77-92”. Bone marrow cells were harvested aseptically in the laminar flow hood as described in example 11. Washed and resuspended bone marrow cells were resuspended in RPMI 1640 (Invitrogen, #61870) supplemented with 10% heat-inactivated fetal bovine serum (Invitrogen, #10108-165), 100 U/mL penicillin and 100 μg/mL streptomycin (Invitrogen, #15140-122). […] 90 μL dendritic cells (cell density 1.2×10^6, 97% viable determined using the NC-100 NucleoCounter system following the manufacturer's (ChemoMetec A/S) protocol) were added 10 μL NAM (N-(9-acridinyl)maleimide, Sigma, #01665, CAS no. 49759-20-8) dissolved in DMSO (100 μg NAM pr. mL DMSO) and mixed by pipetting. […] The cells were investigated using an Olympus IX50 fluorescence microscope, and images were captured using a Lumenera CCD camera and in-house developed software. PI and NAM fluorescence were detected using, respectively, U-MWG2 (green long pass: 510-550 nm) and U-MNUA2 (UV band pass, 330-385 nm) filter cubes (Olympus). […]

Compound | staining of cells (UV filter) versus PI positive cells (Jurkat (JM) cells) | also measured
CCN(CC)c1ccc2c(C)c(-c3ccc(NC(=O)CI)cc3)c(=O)oc2c1 [CPI, 7-diethylamino-3-((4′-(iodoacetyl)amino)phenyl)-4-methylcoumarin] | nearly all cells were stained by CPI | 
CCN(CC)c1ccc2c(C)c(-c3ccc(N4C(=O)C=CC4=O)cc3)c(=O)oc2c1 [CPM, 7-diethylamino-3-[4′-maleimidylphenyl]-4-methylcoumarin] | nearly all cells were stained by CPM | 
CC[N+](C)(CC)CCC[n+]1c(-c2ccccc2)c2cc(N)ccc2c2ccc(N)cc21.[I-].[I-] [PI, propidium iodide] |  | staining of Triton X-100 treated cells (HEK293 cells): PI positive
O=C1C=CC(=O)N1c1ccc2ccc3cccc4ccc1c2c34 [PM, N-(1-Pyrenyl)maleimide] | nearly all cells were stained by PM | 
Cc1c(C)n2c(CCl)c(C)c(=O)n2c1=O [mCB, monochlorobimane] |  | staining of cells (UV filter) versus PI positive cells [1]: nearly all the dendritic cells were stained by mCB
